# Laboratory results as given in patent US6866861B1, “Method and composition for enhancing milk component concentrations” (Land O'Lakes, Inc., priority 1999, dated 2005).
# Tested on: cows
# Experiment: Oral feeding of sorbitol (not ruminally protected) to cows versus control group (Example 7)
# Type: in vivo, cow
# Procedure: To determine the weight percent total solids, wet basis, in a sample, the actual weight of total solids is determined by analyzing the sample in accordance with Method #925.23 (33.2.09) of Official Methods of Analysis, Association of Official Analytical Chemists (AOAC) (16th Ed., 1995). The weight percent total solids, wet basis, is then calculated by dividing the actual weight of total solids by the actual weight of the sample. The weight percent of true protein, wet basis, for a particular sample is calculated after first determining the wet basis weight percent of total Kjeldahl nitrogen and the wet basis weight percent of non-protein nitrogen in the sample. The wet basis weight percent of total Kjeldahl nitrogen in the sample is determined using the method referenced above. The wet basis weight percent of non-protein nitrogen (NPN) in the sample is determined in accordance with Method #991.21 (33.2.12) of Official Methods of Analysis, Association of Official Analytical Chemists (AOAC) (16th Ed., 1995). The weight percent of true protein, wet basis, in the sample is then determined by subtracting the wet basis weight percent of non-protein nitrogen in the sample from the wet basis weight percent of total Kjeldahl nitrogen in the sample. To determine the weight percent lactose, wet basis, in a liquid sample, the weight of the liquid sample is first determined. The actual weight of lactose in the liquid sample may then be determined using analysis kit number 176-303, that is available from Boehringer-Mannheim of Indianapolis, Ind. in accordance with the procedural instructions included with analysis kit number 176-303. The weight percent lactose, wet basis, in the liquid sample is then calculated by dividing the actual weight of lactose in the liquid sample by the actual weight of the liquid sample. To determine the weight percent fat, wet basis, in a sample, the actual weight of fat in the sample is determined in accordance with Method #974.09 (33.7.18) of Official Methods of Analysis, Association of Official Analytical Chemists (AOAC) (16th Ed., 1995). The weight percent fat, wet basis, is then calculated by dividing the actual weight of fat in the sample by the actual weight of the sample. In this example, ten cows were orally fed 100 grams per cow per day of sorbitol along with their other daily rations during a test period of four weeks, while ten different cows of a control group were orally fed the same daily rations as the ten cows, with the exception that the ten cows of this control group were not given any sorbitol. The milk of the cows in the control group and the milk of the cows given sorbitol was sampled twice per week during the four week test period. Therefore, the values presented in Table 6 below for the various milk components for the control group and for the cows fed sorbitol represent averages of eight milk samples during the test period. The probability value, P, that is presented in Table 6 for each of the different milk components is a measure of statistical probability that the differing values between the control cattle and the cattle fed sorbitol, for each respective milk component, can be explained by the difference between the control group not being fed sorbitol and the test group that was fed sorbitol. A P value of 0.10 means that 10 times out of 100 the results can be explained by factors other than the feeding or withholding of sorbitol. […]
# [1] = milk, oral 100 gr/day, four weeks, 10 cows, average of eight samples
smiles,measurement,setting,value
OC[C@@H](O)[C@@H](O)[C@H](O)[C@@H](O)CO [sorbitol],Fat,[1],4.02 Wt %
same,Lactose,[1],4.81 Wt. %
same,Total Solids,[1],12.11 Wt. %
same,True Protein,[1],2.76 Wt. %
same,weight percent of milk components versus control group (conclusion in words),"oral feeding, not ruminally protected",no statistically significant increase
